Earlier results as cited in patent publication US20160213656A1, “H[…] FORM” (Sovereign Pharmaceuticals, LLC, priority 2004, published 2016).

CN1[C@@H]2CC[C@H]1C[C@@H](OC(=O)[C@H](CO)c1ccccc1)C2 [hyoscyamine]
time for which therapeutic levels are maintained (once absorbed, blood): approximately 3.5 hours | time within which the majority of hyoscyamine is excreted in the urine unchanged (urine, unchanged drug): ≤ 12 h
